This data set relates to PC3. Particulars: human, 72 h, 1 ug/mL.

Compound `CC/C=C\C/C=C\C/C=C\C/C=C\C/C=C\CCCC(=O)OCC(COC1OC(CO)C(O)C(O)C1O)OC(=O)CCCCCCCCCCCCCCC` (stereo not shown) [Compound 2, MGDG C20:5/C16:0] returned an Average cell viability of 97%.

The record behind these values is patent US11292807B2 (OCEANS LTD., priority 2015, dated 2022).
